Data from patent US12723096B2, “Regimens and methods of treating multiple sclerosis using ofatumumab” (Novartis AG, priority 2016, dated 2026).

How the values were obtained:
relapsing MS patients = conditions: Phase 2; cited from earlier work
patients with RMS = conditions: 2 Phase 3 trials; over 2 years; cited from earlier work
patients with RRMS = conditions: iv 100, 300, 700 mg; each dose level, both treatment periods; cited from earlier work
CD19+ B cells = assay: Study OMS112831/MIRROR: CD19 B-cell counts; type: in vivo, human
Protocol: (§2) In this study, called MIRROR (MRI study In RRMS: evaluating ofatumumab Regimen), patients received ofatumumab 3 mg, 30 mg, or 60 mg every 12 weeks (q12w), or ofatumumab 60 mg every 4 weeks (q4w). To evaluate whether tolerability to the higher ofatumumab doses (30 mg and 60 mg) could be improved by the administration of an initial, lower, conditioning dose of ofatumumab (theoretically leading to the gradual lysis of B cells and potentially reducing cytokine release reactions), patients in the 30 mg q12w, 60 mg q12w and 60 mg q4w dose groups were randomized (1:1) to receive either placebo or a conditioning dose of ofatumumab 3 mg at week 0.

[1] = Phase I/II study of single low-dose SC ofatumumab in rheumatoid arthritis: safety and tolerability; type: in vivo, human; conditions: RA patients; single doses up to 60 mg, without CS premedication
Protocol: (§1) Ofatumumab targets a novel epitope on the CD20 molecule distinct from rituximab (RTX), a chimeric anti-CD20 MAb. RTX studies have utilized high intravenous (IV) doses (two 1000 mg doses 14 days apart) leading to very rapid B cell lysis resulting in infusion reactions despite the use of IV corticosteroid (CS) premedication. The first study involving ofatumumab was a phase I/II study to investigate the use of a low dose subcutaneous (SC) formulation of ofatumumab in rheumatoid arthritis (RA), administered without CS, potentially providing more controlled B cell depletion than that seen in the RTX studies. The primary objective was to investigate the safety and tolerability of a single SC dose of ofatumumab in rheumatoid arthritis (RA) patients on background methotrexate (MTX). Secondary objectives included investigating the minimum dose to achieve target peripheral B-cell depletion, the pharmacodynamic dose-response curve and B-cell repletion profile. […] Single doses up to 60 mg were tolerated and may provide a method of achieving B-cell depletion without additional CS premedication. This study established that the duration of peripheral B cell depletion increases with dose of ofatumumab (ofatumumab), an anti-CD20 antibody.

peripheral B-cell = assay: Phase I/II study of single low-dose SC ofatumumab in rheumatoid arthritis: peripheral B-cell depletion; type: in vivo, human; conditions: RA patients on stable MTX; single SC doses of 30, 60 or 100 mg
Protocol: as §1

[2] = in vivo
Protocol: as §2

circulating B-cell = conditions: iv 100, 300, 700 mg; each dose level; cited from earlier work
[3] = oncology studies; Arzerra US prescribing information 2016; cited from earlier work
[4] = system: relapsing-remitting multiple sclerosis (RRMS); assay: Study OMS112831/MIRROR, repeat-dose SC ofatumumab in RRMS: brain MRI lesions and relapses; type: in vivo, human; conditions: for reduction of mean cumulative number of new gadolinium-enhancing lesions vs placebo: p<0.001
Text: The primary endpoint was the cumulative number of new gadolinium-enhancing lesions during weeks 0-12 on brain magnetic resonance imaging (MRI). Other endpoints included • (i) the cumulative number of new Gd-enhancing lesions at other time points; • (ii) (ii) the total volume at weeks 12 and 24 of a) new Gd-enhancing lesions, b) new/newly enlarged T2 lesions, and c) T1 hypointense lesions; • (iii) the proportion of patients free from relapses; • (iv) Expanded Disability Status Scale (EDSS) scores; • (v) Multiple Sclerosis Functional Composite (MSFC) and their component scores; • (vi) Modified Fatigue Impact Scale (MFIS); and • (vii) Evaluation of the use of the initial conditioning ofatumumab dose.

## rituximab
Relapsing MS patients
  MRI-measured inflammatory activity: marked reductions

## ocrelizumab
Patients with RMS
  relapse rates vs interferon beta 1a: significantly reduced
Relapsing MS patients
  MRI-measured inflammatory activity: marked reductions

## ofatumumab
Patients with RRMS
  reduction in MRI lesion activity versus placebo: up to 96%
CD19+ B cells; 3, 30, 60 mg q12w, 60 mg q4w SC
  depletion of CD19 B-cells: dose-dependently
CD19+ B cells; all treatments, over 60 weeks of follow up, compared to high-dose i.v. anti-CD20 antibodies
  B-cell repopulation once dosing ceased: relatively rapid B-cell repopulation
CD19+ B cells; monthly dosing (60 mg q4 weeks)
  B-cell repletion during the inter-dosing interval: no signs of B-cell repletion
[1]
  tolerability of single SC dose: tolerated
Peripheral B-cell
  peripheral B-cell depletion: profound and sustained peripheral B-cell depletion
[2]
  adverse events versus lower dose regimens of 3 or 30 mg q12 weeks: more adverse events
  injection-related reactions (most commonly reported AE): 52%
  injection-related reactions mild/moderate in severity: 97 % of the events
  opportunistic infections: no cases
  overall safety and tolerability: safe and well tolerated
Circulating B-cell
  circulating B-cell counts: profound reduction
[3]
  incidence of anti-drug antibodies (ADA) against ofatumumab: < 1 % of patients
[4]; 3 mg every 12 weeks
  MRI effect: clear MRI effect
[4]; 30 mg every 12 weeks
  MRI efficacy: very close to maximal MRI efficacy
[4]; 60 mg every 4 weeks
  added efficacy compared with 60 mg every 12 weeks: didn't add any efficacy
[4]; weeks 0-12
  reduction of cumulative new/newly enlarged T2 lesions vs placebo: 60-72%
  reduction of mean cumulative number of new gadolinium-enhancing lesions vs placebo: 65%
[4]; weeks 0-12, 17/164 patients
  patients who experienced a relapse: 10%
[4]; weeks 4-12, post hoc analysis, cumulative ofatumumab doses 2::30 mg
  reduction of mean cumulative number of new gadolinium-enhancing lesions vs placebo: ≥ 90%
